Consider 90 molecules from a melting point compilation (Tetko et al.; mined from patent text by program, amines drawn as free bases though some values may be those of a salt).

Broadly, the melting point is the temperature, or range, at which the solid turns liquid.

Structures are written as SMILES.

`NS(=O)(=O)c1ncccc1OCCF` showed a melting point of 122 to 123 °C. Next, `Cc1noc(NS(=O)(=O)c2ccccc2-c2ccc(-c3ccccn3)cc2)c1C`: 85 to 90 °C; `CCOC(=O)c1ccc2cc[nH]c2c1`: 72 to 75 °C. As for `O=[N+]([O-])c1ccc(C=NNC2O[C@H](COCc3ccccc3)[C@@H](OCc3ccccc3)[C@H]2OCc2ccccc2)cc1` (stereo not given in full), the figure is 93 °C. The molecule `CNC(=O)N1CCc2[nH]cnc2C1c1ccccc1` (stereo not given) displayed a melting point of 180 °C. For `COc1ccc(Cn2c3c(c(C#N)c2NC2=CC(=O)CCC2)CCCC3)cc1`, the melting point is 143 to 145 °C. As for `O=C1CC(=O)NC(c2ccc(Cl)cc2)=N1`, the melting point lay within 120 to 121 °C.

The molecule `CC(=S)NCC1CN(c2ccc(-c3csc(Cn4cncn4)n3)c(F)c2)C(=O)O1` (stereo not given) came in with a melting point of 82 to 84 °C. Next, `CCOC(=O)c1c(OCC)cc(C(F)(F)F)nc1C(F)(F)F`: 57 to 59 °C; `CN(N=Cc1ccc([N+](=O)[O-])cc1)C1=NOCc2ccc(Cl)cc21`: 251 °C; `CCCc1cc(O)nc(C(Cl)(Cl)Cl)n1`: 107 to 110 °C. As for `COC(=O)c1cc(C(=O)c2ncc3ccccn23)ccc1N`, the figure is 192 °C.

As to `CCOC(=O)C=Cc1ccc(CCNS(=O)(=O)C=Cc2ccccc2)cc1`, the melting point lay in the range of 102 to 104 °C. As for `Cc1cc(-c2ccc(C(F)(F)F)cc2)cnc1N=CN(C)C`, the figure is 74 °C; as for `CCOC(=O)c1ccc(COc2cccc3occc23)cc1`, 70 to 72 °C; as for `CCOC(=O)c1cc2cc(C3=NNC(=O)CC3)ccc2[nH]1`, 235 to 237 °C. `CCOC(=O)CCC(CCCCNS(=O)(=O)c1ccc(Cl)cc1)CCOc1cccnc1` (stereo not given) yielded a melting point of 90 to 93 °C. Next, `COc1cccc(S(=O)(=O)c2ccc(C)nc2Nc2c(C)cc(C)cc2C)c1`: 87 to 88 °C. For `N#Cc1ccc(-c2csc(Nc3ccccc3O)n2)cc1`, the melting point lay within 278 to 280 °C. `Cc1oc(-c2ccco2)nc1COc1ccc(COc2nn(Cc3ccccc3)cc2C=O)cc1Cl` came in with a melting point of 158 to 159 °C. Consider `COC(=O)N(C)c1cccc(-c2ccc3nnc(C)n3n2)c1`, for which the melting point lay in the range of 164 to 166 °C. As for `C=CCC(CC=C)(C(=O)O)S(=O)(=O)c1ccc(OC)cc1`, the figure is 114 to 116 °C; as for `CCOP(=O)(COCC(O)COn1cnc2c(N)ncnc21)OCC` (stereo not given), 84 to 85 °C. Next, `CCCS(=O)c1ncn(C(=O)N(CC)CC)n1` (stereo not given): 50.5 to 51.5 °C; `CC(C)(C)n1cnc2c1c1ccccc1n1nnnc21`: 224 to 226 °C. `COc1ccc(/C=C/c2ccccc2)c(OC)c1OC` had a melting point of 79 to 82 °C. With `CC(=O)OCSc1ccc2c3c(cccc13)C(=O)N2`, the melting point fell in the range of 149 to 154 °C. In the case of `CCCSc1nc(C)c(CO)n1-c1ccccc1Cl`, the melting point was in the range of 98 to 101 °C. Consider `OCCOC(c1ccccc1)c1ccccc1`, for which the melting point lay in the range of 95 to 97 °C. As for `CCOC(=O)c1ccccc1NC(=O)Nc1ccccc1I`, the figure is 162 to 164 °C; as for `N#CSc1cc(N)c(N)cc1Cl`, 108 to 110 °C; as for `COc1ccc(-c2c(Cl)c(CN3CCCCC3=O)nc3sc4c(c23)CCN(Cc2ccccc2)C4)cc1OC`, 113 to 114 °C. `O=C1N[C@H](C(=O)O)Cc2cc(O)c(O)cc21` displayed a melting point of 268 to 272 °C. In the case of `CCCCCCCc1ccc(C(=O)CCCCC(=O)O)cc1[N+](=O)[O-]`, the melting point is 53 to 56 °C. As for `COc1ccc(-c2cc(F)c(F)cc2-c2ccc(S(N)(=O)=O)cc2)cc1C`, the figure is 120 to 122 °C. `COc1cc(COc2nn(Cc3ccccc3)cc2C(N)=O)ccc1OCc1nc(-c2ccccc2)oc1C` yielded a melting point of 164 to 165 °C. As for `COc1ccc(OC)c(P(=O)(C(=O)c2c(C)cc(C)cc2C)C(=O)c2c(C)cc(C)cc2C)c1`, the figure is 161 °C; as for `O=[N+]([O-])c1cc(CCl)ccc1OCc1ccccc1`, 60 to 61 °C.

The molecule `COc1cc(C=NOCc2ccccc2)c([N+](=O)[O-])cc1OC` had a melting point of 109 to 113 °C. Regarding `CS(=O)c1ccc(-c2cnn(CC(F)(F)F)c(=O)c2-c2ccc(Cl)cc2)cc1` (stereo not given), the melting point fell in the range of 154 to 155 °C. As for `Cc1ccc(C2=C(c3ccc(S(C)(=O)=O)cc3)CN(C)C2=O)c(C)c1`, the figure is 59 to 61 °C; as for `COc1ccc(-c2ncn(CCCCCCCC(=O)O)c2-c2ccc(OC)cc2)cc1`, 142 to 143 °C; as for `O=C1CCc2cc(NCC(=O)N3CCC(Cc4ccccc4)CC3)ccc2N1`, 184 to 187 °C. In turn, `O=C1CCCOc2ccc(O)cc21` came in with a melting point of 116 to 120 °C. Next, `CN1CCN(c2nc(-c3ccccc3)nc3nc(-c4ccncc4)[nH]c23)CC1`: 333 to 337 °C; `CCN(CC)C1CCN(c2cccc(-c3cnn4c(N)c(-c5cccc(Cl)c5)c(C)nc34)c2)CC1`: 163 to 168 °C. As for `Cc1nn(-c2cncnc2)cc1N`, the figure is 211 to 215 °C; as for `CCC(CC)(CO)Nc1nc(-c2ccc(C#N)cc2)cs1`, 118 to 120 °C; as for `COc1cc(O)cc2c1-c1c(O)cccc1C2=O`, 71 to 72 °C. Next, `CCn1cc(C)c(=S)[nH]c1=O`: 205 to 206 °C; `Cc1ccccc1CCNC(=O)c1ccc(Br)cc1`: 102 to 103 °C. For `COc1ccc(Oc2c(Cl)cc(-n3ncc(=O)[nH]c3=O)cc2Cl)cc1NS(=O)(=O)c1ccc(F)cc1`, the melting point was in the range of 90 to 96 °C. With `O=C(O)C(CCN1C(=O)c2ccccc2C1=O)Oc1c(Br)cc(-c2ccc(-c3c(Cc4ccccc4)sc4ccccc34)cc2)cc1Br` (stereo not given), the melting point was in the range of 113 to 115 °C. For `O=C(Nc1ccc(N2CCN(Cc3ccccc3)CC2)c(Cl)c1)c1ccccn1`, the melting point was 92 to 94 °C.

`Cc1ncsc1C(C)(O)c1cc2ccccc2o1` (stereo not given) came in with a melting point of 139 to 140 °C. As for `COc1cc(Nc2nccc(N3CCC(O)CC3)n2)ccc1-n1cnc(C)c1`, the figure is 197 to 200 °C. Next, `O=C(OCC(Cl)(Cl)Cl)N1CCC(C2c3cccc4c3N(CC4)c3ccccc3N2C(=O)OCC(Cl)(Cl)Cl)CC1` (stereo not given): 202 to 205 °C; `Nc1ccc(C(=O)N(CCN2CCC(C(=O)c3ccc(F)cc3)CC2)c2cccc(N)c2)cc1`: 108 to 110 °C; `CCCCCCCCCCCC1CC(O)C(CCCCCC)C(=O)O1` (stereo not given): 98 to 99 °C. `CCOC(=O)c1cnc2ccc(OCC)nc2c1Cl` returned a melting point of 61 to 64 °C. Molecule `CSc1cc(C)nc(SC)c1NC(=O)CCCCCCSc1nc2c(C)c(Cl)cc(C(C)C)c2o1` displayed a melting point of 129 to 131 °C. Next, `CC(=O)CN(C(=O)Cc1ccccc1)C(C)(C)c1cccc(Cl)c1`: 98 to 100 °C; `C[C@H](CO)Nc1nc(SCc2ccccc2)nc2[nH]c(=O)[nH]c12`: 284 °C; `CON=C(C#N)c1ccc(Cl)c(CNC(=O)OC)c1`: 104 to 107 °C. For `COc1ccc(Cl)c(C(N)=O)c1F`, the melting point is 154 to 156 °C. With `CC1(c2ccccc2Cl)C(=O)Nc2ccc(Cl)cc21` (stereo not given), the melting point came to 185 °C. As for `COc1ccc(-c2nc3cc(OC)cc(C#N)c3o2)cc1`, the figure is 180 to 183 °C; as for `CCOC(=O)COc1cc(S(C)(=O)=O)ccc1C(=O)NCc1ccc(Br)cc1F`, 140 to 143 °C; as for `CC(C)(C)OC(=O)N1CCN(c2ccc(OCC3(C)Cn4cc([N+](=O)[O-])nc4O3)cc2)CC1` (stereo not given), 212 to 214 °C. As for `Nc1ccc(S(=O)(=O)Nc2cccc(OP(N)(N)=O)c2)cc1`, the figure is 185 to 186 °C; as for `CC1(C)CCC(C)(C)c2c(CO)cc(-c3ccccc3)cc21`, 80 to 82 °C. In turn, `CCCCCCCCCCCCCCC(CCC(=O)OCc1ccccc1)C(=O)O` (stereo not given) yielded a melting point of 62 to 63 °C.

`COC(=O)C(=O)Oc1c(F)c(F)c(F)c(F)c1F` came in with a melting point of 34 to 35 °C. Next, `Cc1cc(C)n(-c2cnc(CN(C)C)c(Nc3ccc(Cl)cc3)n2)n1`: 112 to 114 °C. Consider `CCCN(Cc1ccc(-c2ccccc2-c2nnn[nH]2)cc1)C1(C(=O)O)C=NSN1` (stereo not given), for which the melting point fell in the range of 97 to 98 °C. Turning to `Cc1cc(-c2nncc3c(C(C)(C)C)c(OCc4ncn(C)n4)nn23)no1`, the melting point was in the range of 161 to 164 °C. As for `CCOC(=O)Cc1nnnn1C`, the figure is 64 to 66 °C. Next, `CC(CO)n1cnc2c(I)ncnc21` (stereo not given): 193 to 194 °C; `COc1cc(C(=CC#N)c2cc(OC)c(OC)c(OC)c2)ccc1N`: 123 to 125 °C; `CCC(C)n1ncn(-c2ccc(N3CCN(c4ccc(O)cc4)CC3)cn2)c1=O` (stereo not given): 144 to 145 °C.

`O=C(O)c1ccc(/C=C/c2cnc3ccccc3c2)cc1`: the melting point is 287 to 290 °C. `O=C(c1ccccc1)c1ccc2c([N+](=O)[O-])c(O)c(O)cc2c1` came in with a melting point of 196 to 205 °C. As to `OCCCCOc1ccc2cc(O)ccc2c1`, the melting point lay in the range of 148 to 150 °C. For the molecule `CCOC(=O)CCC(C=Cc1ccc(OC)c(OC)c1)=C1SC(=S)NC1=O`, the melting point fell in the range of 178 to 180 °C.

For the molecule `CCOP(=O)(Cc1ccc(NC(=O)CCc2cnoc2-c2ccccc2)cc1)OCC`, the melting point lay in the range of 139 to 140 °C. As to `Cc1c(C(O)C2CCc3cc4ccccc4n3C2=O)ncn1C(c1ccccc1)(c1ccccc1)c1ccccc1` (stereo not given), the melting point was in the range of 85 to 90 °C. Next, `O=C(O)C1=Cc2cc(Cl)c(-c3ccccc3)cc2OC1C(F)(F)F` (stereo not given): 185 to 188 °C; `COc1ccc2[nH]c(S(=O)Cc3nccc(N4CCOCC4)c3F)nc2c1` (stereo not given): 142 to 146 °C. In turn, `CSc1nc2c(NCc3ccccc3)ncnc2n1C1OC(CO)C(O)C1O` (stereo not given) yielded a melting point of 81 to 84 °C. As for `COc1ccc(C(=O)c2ccc(Br)cc2)c(C)c1F`, the melting point was 93 to 95 °C.
